Results on one compound are retold here after US6635030B1 (B.H.B. LLC, priority 1999, dated 2003).

The nature of the data set: Empiric porcine aortic contrast enhancement, dynamic CT after i.v. contrast injection. The class given is in vivo, pig. The protocol: In order to test the mathematical solutions, a porcine study was conducted. All animal care and procedures performed were approved by the Institutional Animal Study Committee. […] Each session was separated by at least two days. Two pigs had all their sessions within a week, while the other two pigs had their first two and last sessions delays 4-5 weeks, which results in an increase in their weight to 35-40 kg in their last session. In each session, the pig was anesthetized, intubated, and underwent scanning for three or four sets of images obtained in random order. During scanning, each pig was ventilated with oxygen and low tidal volume to minimize breathing motion artifact. […] Each set of scans were 45-60 minutes apart to minimize the effect of prior contrast administration. All CT scanning was performed with a Somatom Plus-S scanner (Siemens Medical Systems, […].) using a one-second scanning time and a one-second interscan delay. Three types of injection schemes were tested: uniphasic, biphasic, and multiphasic. Biphasic injections were performed by a prior art power injector which was used in routine clinical CT scanning while uniphasic and multiphasic injections were conducted with a power injector which was invented for achieving the required protocols. This power injector was capable of delivering contrast medium in various uniphasic or multiphasic injection algorithms, as is explained in greater detail below. The multiphasic injection rate is determined by an initial injection rate and an exponential decay coefficient, as shown in FIG. 3. […] Most injections were performed with the initial injection rate of 2 mL/s. […] Three differential exponential decay coefficients (0.007, 0.017, 0.026) were tested. […] These were the three smallest discrete increments allowed in the prototype of the inventive power injector. Decay coefficient higher than 0.03 was not used because it was evident that a further increase in the coefficient would deviate further away from uniform vascular enhancements. A uniphasic injection was determined as being equivalent to a zero exponential decay coefficient where the injection rate remains constant at an initial injection rate throughout the injection duration. […] Approximately half of the total contrast volume was injected in each phase of the biphasic injections. […] Attenuation values of the aorta were measured from post-contrast scans (at the same level as the pre-contrast scans) using a circular region of interest (ROI) at the center of the aorta. Contrast enhancement was calculated as the absolute different in attenuation value between the pre- and post-contrast scans. […] Means and standard deviations were also computed. The results are now explained.

The mark [1] stands for this setting: 25 kg pig, 50 mL of 282 mgI/mL contrast medium, uniphasic 2 mL/sec.
The mark [2] stands for this setting: four pigs, 50 mL, 2 mL/s initial injection rate, decay constant 0.017.
Where [3] appears, read: four pigs, 70 mL, 2 mL/s initial injection rate, decay constant 0.017.

Turning to `CNC(=O)c1c(I)c(NC(C)=O)c(I)c(C(=O)O)c1I.CNC[C@H](O)[C@@H](O)[C@H](O)[C@H](O)CO` [contrast medium, iothalmate meglumine], under setting [1], the “magnitude of the peak aortic enhancement (empiric)” value was determined as 250 HU and the “time to the peak aortic enhancement (empiric)” value amounted to 26 s. Besides, under setting [2], the “increase of duration of enhancement within 90% of the peak (90%DCE), multiphasic vs uniphasic injection, mean” value came out at 81% and the “reduction of peak aortic enhancement (PA), multiphasic vs uniphasic injection, mean” value is reported as 19%. Also, under setting [3], the “decrease of peak aortic enhancement (PA), multiphasic vs uniphasic injection” value came out at 18% and the “increase of duration of enhancement within 90% of the peak (90%DCE), multiphasic vs uniphasic injection” value stood at 94%.
